Data published in the NIST ThermoML archive (doi:10.1021/je030191w).
± gives the expanded uncertainty stated by the source.

Experiments:
[1] = xn = mol fraction of the nth substance listed; conditions: 101 kPa, Liquid, x1 = 1
[2] = 101 kPa, Liquid

Compound: O [water] + CCn1cc[n+](C)c1.F[B-](F)(F)F
- viscosity ([1]; 293.15 K): 1.002 ± 0.099 mPa·s
- viscosity ([1]; 298.15 K): 0.89 ± 0.089 mPa·s
- viscosity ([1]; 303.15 K): 0.798 ± 0.081 mPa·s
- viscosity ([1]; 308.15 K): 0.719 ± 0.075 mPa·s
- viscosity ([1]; 313.15 K): 0.653 ± 0.069 mPa·s
- mass density ([1]; 318.15 K): 990.1 ± 50 kg/m3
- viscosity ([1]; 318.15 K): 0.599 ± 0.064 mPa·s
- mass density ([1]; 323.15 K): 988 ± 50 kg/m3
- viscosity ([1]; 323.15 K): 0.547 ± 0.06 mPa·s

Compound: CCn1cc[n+](C)c1.F[B-](F)(F)F [1-ethyl-3-methylimidazolium tetrafluoroborate]
- mass density ([2]; 293.15 K): 1340.7 ± 50 kg/m3
- viscosity ([2]; 293.15 K): 45.29 ± 2.9 mPa·s
- mass density ([2]; 298.15 K): 1336.7 ± 50 kg/m3
- viscosity ([2]; 298.15 K): 37.19 ± 2.4 mPa·s
- mass density ([2]; 303.15 K): 1332.9 ± 50 kg/m3
- viscosity ([2]; 303.15 K): 31.36 ± 2.1 mPa·s
- mass density ([2]; 308.15 K): 1329.6 ± 50 kg/m3
- viscosity ([2]; 308.15 K): 25.56 ± 1.7 mPa·s
- mass density ([2]; 313.15 K): 1325.9 ± 50 kg/m3
- viscosity ([2]; 313.15 K): 21.54 ± 1.5 mPa·s
- mass density ([2]; 318.15 K): 1322.2 ± 50 kg/m3
- viscosity ([2]; 318.15 K): 18.84 ± 1.3 mPa·s
- mass density ([2]; 323.15 K): 1319.5 ± 50 kg/m3
- viscosity ([2]; 323.15 K): 15.9 ± 1.1 mPa·s
